# Earlier results, collected in US20050112210A1, “Eye nutritional supplement” (priority 2003, published 2005).
# System: A2E-epoxidation
# Settings: singlet oxygen generated in the presence of A2E
row,Compound,effect on A2E-epoxidation
1,Cc1cc(C(C)(C)C)c(O)c(C(C)(C)C)c1 [butylated hydroxytoluene],reduced A2E-epoxidation by quenching singlet oxygen
2,Oc1ccc(C=Cc2cc(O)cc(O)c2)cc1 [resveratrol],reduced A2E-epoxidation by quenching singlet oxygen
3,vitamin E,reduced A2E-epoxidation by quenching singlet oxygen
